Where two headings read alike, the source gives them in different places.
Target: alanyl aminopeptidases (APN) (Homo sapiens, UniProt P15144)
Assay: Inhibition of alanyl aminopeptidase enzymatic activity, fluorogenic substrate (Ala)2-rhodamine 110
Assay type: biochemical
Method: The inhibition characteristics measured are referred to as IC-50 values or ID50 values (the latter marked with “*”) for said enzyme. The enzymatic activity was determined by means of the fluorogenic substrate/product (Ala)2-rhodamine 110.

[1] = Table 3, unstarred values, read-out: IC50APN
[2] = Table 9, unstarred values, read-out: IC50APN
[3] = Table 4, unstarred values, read-out: IC50APN
[4] = Table 3, starred values = ID50, read-out: ID50 APN (values marked with *)

Chain of alanyl aminopeptidases (APN) (P15144 whole entry, species assumed): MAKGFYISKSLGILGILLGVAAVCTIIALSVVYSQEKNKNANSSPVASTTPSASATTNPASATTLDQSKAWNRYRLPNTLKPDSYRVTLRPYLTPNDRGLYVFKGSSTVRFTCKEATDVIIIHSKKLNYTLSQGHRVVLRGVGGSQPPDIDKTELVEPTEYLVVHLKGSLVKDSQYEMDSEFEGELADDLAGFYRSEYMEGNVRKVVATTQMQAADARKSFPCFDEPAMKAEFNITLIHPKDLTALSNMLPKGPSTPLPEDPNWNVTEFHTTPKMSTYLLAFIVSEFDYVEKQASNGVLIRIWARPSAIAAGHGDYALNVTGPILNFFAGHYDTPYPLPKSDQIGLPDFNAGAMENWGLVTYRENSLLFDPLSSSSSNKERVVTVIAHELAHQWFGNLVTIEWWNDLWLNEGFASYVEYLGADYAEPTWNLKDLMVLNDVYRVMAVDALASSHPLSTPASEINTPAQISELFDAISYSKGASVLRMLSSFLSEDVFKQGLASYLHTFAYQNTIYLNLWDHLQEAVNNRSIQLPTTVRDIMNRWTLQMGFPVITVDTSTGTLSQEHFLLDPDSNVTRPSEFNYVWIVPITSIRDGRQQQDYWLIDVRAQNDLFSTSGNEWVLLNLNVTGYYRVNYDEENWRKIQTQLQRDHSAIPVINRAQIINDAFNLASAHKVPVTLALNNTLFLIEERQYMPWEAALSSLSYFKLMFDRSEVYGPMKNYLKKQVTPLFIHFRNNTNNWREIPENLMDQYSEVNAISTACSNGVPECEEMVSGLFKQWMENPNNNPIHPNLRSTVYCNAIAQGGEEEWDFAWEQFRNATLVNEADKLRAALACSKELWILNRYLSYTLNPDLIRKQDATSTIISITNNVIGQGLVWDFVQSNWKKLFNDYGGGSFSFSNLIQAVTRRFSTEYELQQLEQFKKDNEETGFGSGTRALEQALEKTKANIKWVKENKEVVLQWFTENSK

`CC(=O)Nc1ccc(C(=O)N/N=C/c2ccc(C)o2)cc1` [A3.183] showed an IC50 [1] of 29.7 µM.

In the case of `N#C/C(=C\c1ccc(N2Cc3ccccc3C2)cc1)C(=O)NCC1CCCO1` (centres unmarked) [A12.047], the IC50 (Table 12, read-out: IC50APN) is reported as 28.1 µM.

With `COc1cc(C)[n+](OC(=O)N(C)C)c(C)c1` [A9.095] the IC50 [2] was 42.4 µM.

Work on `O=C(CNC(=O)C(c1ccccc1)c1ccccc1)N/N=C/c1ccco1` [A4.034] yielded an IC50 [3] of 15.6 µM.

Work on `CCCOC(=O)c1cc(-c2ccc(/C=C3/C(=O)N(CC(C)O)C(=O)C(C#N)=C3C)o2)ccc1Cl` (centres unmarked) [A9.083] yielded an IC50 [2] of 32 µM.

`Cc1ccc(/C=N/NC(=O)c2ccc(N3CCCC3=O)cc2)o1` [A4.129] was tested, and the IC50 [3] was 44.2 µM.

`CCc1c(C)nc2c(OC)cccc2c1SCC(=O)O` [A9.082] showed an IC50 [2] of 31.1 µM.

With `O=C(N/N=C/c1ccco1)c1cccc(NC(=O)c2cccc(Br)c2)c1` [A4.064] the IC50 [3] was 22.4 µM.

Work on `COc1c(OCC(O)C(C)(C)O)ccc2c1N=C1OC=CC1C2OC` (centres unmarked) [A9.120] yielded an IC50 (Table 9, starred values = ID50, read-out: ID50 APN (values marked with *)) of 117 µM.

For `Cc1ccccc1C(=O)Nc1ccc(C(=O)N/N=C/c2ccco2)cc1` [A4.133], the IC50 [3] was 45.4 µM.

With `O=C(N/N=C/c1cc(Br)cc(Br)c1OC(=O)c1ccccc1)/C(=C/c1ccc2c(c1)OCO2)NC(=O)c1ccccc1` [A3.101] the IC50 [1] was 19.8 µM.

With `O=C(N/N=C\c1ccco1)c1cnccn1` [A9.079] the IC50 [2] was 30.1 µM.

With `CC(=O)N1CCOC1(C)c1ccc([N+](=O)[O-])cc1` (centres unmarked) [A11.024] the IC50 (Table 11, read-out: IC50APN) was 32.8 µM.

With `CCN(CC)C(=O)c1cc([N+](=O)[O-])ccc1C(=O)O` [A11.009] the IC50 (Table 11, read-out: IC50APN) was 12.1 µM.

`CC(=O)c1cccc(-c2ccc(/C=C3/C(=O)N(CCCO)C(=O)C(C#N)=C3C)o2)c1` [A9.042] showed an IC50 [2] of 18.2 µM.

For `N#C/C(=C\c1ccc(N2Cc3ccccc3C2)cc1)C(=O)NCC1CCCO1` (centres unmarked) [A13.013], the IC50 (Table 13, read-out: IC50APN) was 28.1 µM.

For `Cn1nc(-c2cccs2)nc2c(=O)n(C)c(=O)nc1-2` [A9.059], the IC50 [2] was 25 µM.

In the case of `Cc1ccc(/C=C/C(=O)Nc2ccc(S(=O)(=O)N3CCCC3)cc2)o1` [A3.149], the IC50 [1] is reported as 24.8 µM.

Work on `Cc1ccc(/C=N/NC(=O)COc2ccc(Cl)cc2)o1` [A3.076] yielded an IC50 [1] of 16 µM.

`Cc1ccc(/C=N\NC(=O)Cc2cccs2)o1` [A4.144] showed an IC50 [3] of 51.1 µM.

`Cn1cccc1CC(=O)N/N=C\c1ccco1` [A3.320] was tested, and the IC50 [4] was 113 µM.

Work on `CC1=C(C#N)C(=O)N(CC(C)O)C(=O)/C1=C/c1ccc(-c2ccc(Br)cc2)o1` (centres unmarked) [A13.021] yielded an IC50 (Table 13, read-out: IC50APN) of 47.2 µM.

Work on `O=C1C(Cc2ccccc2)NC(=S)N1c1ccccc1` (centres unmarked) [A8.020] yielded an IC50 (Table 8, unstarred values, read-out: IC50APN) of 26.1 µM.

`O=C(CNC(=O)c1ccccc1Br)N/N=C/c1ccco1` [A3.314] was tested, and the IC50 [4] was 91.2 µM.

`C/C(=N\NC(=O)c1ccn(C)n1)c1ccco1` [A3.349] gave an IC50 [4] of 323 µM.

`CCCN1C(=O)C(C#N)=C(C)/C(=C\c2ccc(-c3cccc(Cl)c3C)o2)C1=O` [A13.011] gave an IC50 (Table 13, read-out: IC50APN) of 20.8 µM.

`O=C(NCCc1ccccc1)/C(=C\c1ccco1)NC(=O)c1ccccc1` [A3.275] showed an IC50 [1] of 55.8 µM.

For `CC1CCN(C(=O)/C(=C\c2ccco2)NC(=O)c2ccccc2)CC1` [A9.096], the IC50 [2] was 45 µM.

With `O=C(CS(=O)(=O)c1ccc(Cl)cc1)NO` [A1.008] the IC50 (Table 1, unstarred values, read-out: IC50APN) was 11.5 µM.

`O=C1Nc2cc(C(=O)N3CCN(c4ccccc4)CC3)ccc2NC1CSCc1ccccc1F` (centres unmarked) [A9.106] showed an IC50 [2] of 61.5 µM.

`CC(=O)n1cc(/C=C/C=N/NC(=O)CC#N)c2ccccc21` [A4.113] showed an IC50 [3] of 35.5 µM.

Work on `CC(=O)NC1OCC(O)C(O)C1O` (centres unmarked) [A9.014] yielded an IC50 [2] of 7.3 µM.

For `Cc1ccc(C(=O)N/C(=C\c2ccco2)C(=O)N2CCSCC2)cc1C` [A3.297], the IC50 [1] was 68.9 µM.

`COc1cc(/C=N/NC(=O)c2cc(-c3ccco3)n[nH]2)cc(OC)c1OC` [A3.083] showed an IC50 [1] of 17 µM.

For `CCN(CC)C(=O)/C(=C/c1ccco1)NC(=O)c1ccccc1` [A3.054], the IC50 [1] was 12.8 µM.

Molecule `Cc1cc(C(=O)N/N=C/c2ccc(C)o2)[nH]n1` [A4.100] has an IC50 [3] of 31.8 µM.

`COc1cccc(C(=O)NCC(=O)N/N=C/c2ccc([N+](=O)[O-])o2)c1` [A3.340] showed an IC50 [4] of 222 µM.

In the case of `Cc1ccccc1S(=O)(=O)Nc1cccc(C(=O)N/N=C/c2ccco2)c1` [A3.097], the IC50 [1] is reported as 19.2 µM.

Molecule `Cc1ccc(C(=O)N/C(=C\c2ccco2)C(=O)N2CCOCC2)cc1C` [A9.073] has an IC50 [2] of 28.8 µM.

`O=C(O)c1ccc(-n2c(/C=C/c3ccco3)nc3ccccc3c2=O)cc1` [A9.052] was tested, and the IC50 [2] was 21.2 µM.

`Cc1ccc(S(=O)(=O)N2CCC(C(=O)N/N=C/c3ccco3)CC2)cc1` [A9.110] showed an IC50 [2] of 69.3 µM.

`C/C(=N/O)c1ccc2c(c1)OCCOCCOc1cc(/C(C)=N\O)ccc1OCCOCCO2` [A2.002] showed an IC50 (Table 2, read-out: IC50APN) of 8.6 µM.

`Cc1ccc(S(=O)(=O)CNC(=S)c2ccc(Cl)c(Cl)c2)cc1` [A7.010] gave an IC50 (Table 7, read-out: IC50APN) of 18 µM.

Work on `O=C(N/N=C/c1ccco1)c1ccc(O)cc1` [A4.042] yielded an IC50 [3] of 16.8 µM.

In the case of `CC1SC(N/N=C/c2ccco2)=NC1=O` (centres unmarked) [A4.089], the IC50 [3] is reported as 27.7 µM.

Work on `Cc1ccc(C)n1-c1cccc(C(=O)N/N=C/c2cc(Br)c(O)c(Br)c2)c1` [A4.075] yielded an IC50 [3] of 24.9 µM.

For `C/C(=N\NC(=O)c1cc(-c2ccco2)n[nH]1)c1ccco1` [A3.334], the IC50 [4] was 161 µM.

Source: patent US20070037752A1, “Novel alanyl-amino peptidase inhibitors for functionally influencing different cells and treating immunological, inflammatory, neuronal, and other diseases” (priority 2003, published 2007)
